Measured values as given in ChEMBL document CHEMBL5380778, “Structure-Directed Discovery of Potent Soluble Epoxide Hydrolase Inhibitors for the Treatment of Inflammatory Diseases” (J Med Chem, 2023).

Columns and labels:
[1] = target: T1, Bifunctional epoxide hydrolase 2 (Mus musculus, UniProt P34914); test: Inhibition of recombinant mouse soluble epoxide hydrolase using PHOME as substrate assessed as 6-methoxynaphthaldehyde product formation preincubated with compound for 10 mins followed by substrate addition and measured by fluorescence based analysis
T1 sequence (P34914 whole entry): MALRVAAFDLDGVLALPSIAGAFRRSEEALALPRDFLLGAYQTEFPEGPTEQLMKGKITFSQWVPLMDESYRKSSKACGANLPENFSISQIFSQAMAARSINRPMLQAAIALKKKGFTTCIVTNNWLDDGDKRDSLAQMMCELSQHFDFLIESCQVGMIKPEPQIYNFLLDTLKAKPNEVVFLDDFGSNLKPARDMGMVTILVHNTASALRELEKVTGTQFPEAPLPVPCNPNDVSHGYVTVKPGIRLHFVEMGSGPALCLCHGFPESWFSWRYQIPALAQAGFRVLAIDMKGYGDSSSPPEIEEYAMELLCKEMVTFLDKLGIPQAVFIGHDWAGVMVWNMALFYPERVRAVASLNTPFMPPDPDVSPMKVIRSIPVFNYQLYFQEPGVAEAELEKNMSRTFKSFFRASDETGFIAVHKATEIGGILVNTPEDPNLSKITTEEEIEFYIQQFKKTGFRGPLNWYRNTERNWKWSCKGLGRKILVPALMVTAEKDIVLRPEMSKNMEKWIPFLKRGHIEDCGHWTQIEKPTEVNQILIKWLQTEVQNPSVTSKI

[2] = target: T2, Bifunctional epoxide hydrolase 2 (Homo sapiens, UniProt P34913); test: Inhibition of recombinant human soluble epoxide hydrolase using PHOME as substrate assessed as 6-methoxynaphthaldehyde product formation preincubated with compound for 10 mins followed by substrate addition and measured by fluorescence based analysis
T2 sequence (P34913 whole entry): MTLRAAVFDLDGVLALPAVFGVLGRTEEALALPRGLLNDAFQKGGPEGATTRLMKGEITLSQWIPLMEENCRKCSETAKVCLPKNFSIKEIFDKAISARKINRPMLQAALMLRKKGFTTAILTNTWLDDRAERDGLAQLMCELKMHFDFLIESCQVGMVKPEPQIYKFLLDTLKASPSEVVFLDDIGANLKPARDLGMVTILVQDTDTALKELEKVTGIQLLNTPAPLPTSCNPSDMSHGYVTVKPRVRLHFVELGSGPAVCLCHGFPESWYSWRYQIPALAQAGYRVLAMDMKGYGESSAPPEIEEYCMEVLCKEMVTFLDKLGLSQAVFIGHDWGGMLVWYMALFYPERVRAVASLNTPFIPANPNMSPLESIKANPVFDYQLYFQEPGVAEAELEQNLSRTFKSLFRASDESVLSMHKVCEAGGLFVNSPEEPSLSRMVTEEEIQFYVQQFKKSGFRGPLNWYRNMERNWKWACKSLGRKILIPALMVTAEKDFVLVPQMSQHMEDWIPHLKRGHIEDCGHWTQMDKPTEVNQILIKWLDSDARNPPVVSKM

Compound	IC50 [1]	IC50 [2]
CCC(=O)N1CCC(CC(=O)N2CCCN(C(=O)c3ccc(NC(=O)N[C@@]45C[C@@H]6C[C@@](C)(C[C@@](C)(C6)C4)C5)c(F)c3)CC2)CC1	0.39 nM	0.9 nM
CC(O)CNC(=O)C1CCN(C(=O)c2ccc(NC(=O)N[C@@]34C[C@@H]5C[C@@](C)(C[C@@](C)(C5)C3)C4)c(F)c2)CC1 (stereo partly drawn)	0.18 nM	4.5 nM
C[C@]12C[C@@H]3C[C@](C)(C1)C[C@@](NC(=O)Nc1ccc(C(=O)N4CCC(C(=O)NCCO)CC4)cc1F)(C3)C2	0.26 nM	3.43 nM
C[C@]12C[C@@H]3C[C@](C)(C1)C[C@@](NC(=O)Nc1ccc(C(=O)NC4CCC(C(=O)NCCO)CC4)cc1F)(C3)C2 (stereo partly drawn)	0.18 nM	0.8 nM
CCN(CC)C(=O)C1CCN(C(=O)c2ccc(NC(=O)N[C@@]34C[C@@H]5C[C@@](C)(C[C@@](C)(C5)C3)C4)c(F)c2)CC1	0.53 nM	2.2 nM
C[C@]12C[C@@H]3C[C@](C)(C1)C[C@@](NC(=O)Nc1ccc(CN4CCCC(C(=O)NC(CO)(CO)CO)C4)cc1F)(C3)C2 (stereo partly drawn)	0.32 nM	0.14 nM
C[C@]12C[C@@H]3C[C@](C)(C1)C[C@@](NC(=O)Nc1ccc(CN4CCCC(C(=O)N5CCCN(C(=O)C6CC6)CC5)C4)cc1F)(C3)C2 (stereo partly drawn)	0.8 nM	0.42 nM
C=CC(=O)N1CCCN(C(=O)C2CCCN(Cc3ccc(NC(=O)N[C@@]45C[C@@H]6C[C@@](C)(C[C@@](C)(C6)C4)C5)c(F)c3)C2)CC1 (stereo partly drawn)	1.1 nM	0.42 nM
C[C@]12C[C@@H]3C[C@](C)(C1)C[C@](NC(=O)Nc1ccc(C(=O)N4CCCC(C(=O)NCCO)C4)cc1F)(C3)C2 (stereo partly drawn)	0.15 nM	0.35 nM
CC(O)CNC(=O)C1CCCN(Cc2ccc(NC(=O)N[C@@]34C[C@@H]5C[C@@](C)(C[C@@](C)(C5)C3)C4)c(F)c2)C1 (stereo partly drawn)	0.58 nM	0.28 nM
C[C@]12C[C@@H]3C[C@](C)(C1)C[C@@](NC(=O)Nc1ccc(CN4CCCC(C(=O)NCCO)C4)cc1F)(C3)C2 (stereo partly drawn)	0.18 nM	0.63 nM
C[C@]12C[C@@H]3C[C@](C)(C1)C[C@@](NC(=O)Nc1ccc(CN4CCC(C(=O)N(CCO)CCO)CC4)cc1F)(C3)C2	0.55 nM	6.72 nM
CC(C)(C)OC(=O)N1CCN(CCNC(=O)C2CCC(NC(=O)c3ccc(NC(=O)N[C@@]45C[C@@H]6C[C@@](C)(C[C@@](C)(C6)C4)C5)c(F)c3)CC2)CC1 (stereo partly drawn)	2 nM	183 nM
C[C@]12C[C@@H]3C[C@](C)(C1)C[C@@](NC(=O)Nc1ccc(C(=O)N4CCCC(C(=O)O)C4)cc1F)(C3)C2 (stereo partly drawn)	1.3 nM	4.6 nM
C[C@]12C[C@@H]3C[C@](C)(C1)C[C@@](NC(=O)Nc1ccc(CN4CCCC(C(=O)O)C4)cc1F)(C3)C2 (stereo partly drawn)	0.61 nM	2.3 nM
C[C@]12C[C@@H]3C[C@](C)(C1)C[C@@](NC(=O)Nc1ccc(CN4CCC(C(N)=O)CC4)cc1F)(C3)C2	0.06 nM	1.54 nM
C[C@]12C[C@@H]3C[C@](C)(C1)C[C@@](NC(=O)Nc1ccc(CN4CCCC(C(=O)NC(CO)CO)C4)cc1F)(C3)C2 (stereo partly drawn)	0.35 nM	0.28 nM
C[C@]12C[C@@H]3C[C@](C)(C1)C[C@@](NC(=O)Nc1ccc(C(=O)NC4CCC(C(N)=O)CC4)cc1F)(C3)C2 (stereo partly drawn)	0.35 nM	0.84 nM
CC(CN(C)C)N1CCC(CC(=O)N2CCCN(C(=O)c3ccc(NC(=O)N[C@@]45C[C@@H]6C[C@@](C)(C[C@@](C)(C6)C4)C5)c(F)c3)CC2)CC1 (stereo partly drawn)	0.8 nM	19.6 nM
C[C@]12C[C@@H]3C[C@](C)(C1)C[C@@](NC(=O)Nc1ccc(C(=O)NC4CCC(C(=O)NC(CO)CO)CC4)cc1F)(C3)C2 (stereo partly drawn)	0.55 nM	0.91 nM
C[C@]12C[C@@H]3C[C@](C)(C1)C[C@@](NC(=O)Nc1ccc(C(=O)N4CCCC(C(=O)N5CCN(CCO)CC5)C4)cc1F)(C3)C2 (stereo partly drawn)	0.15 nM	0.84 nM
CC(O)CNC(=O)C1CCN(Cc2ccc(NC(=O)N[C@@]34C[C@@H]5C[C@@](C)(C[C@@](C)(C5)C3)C4)c(F)c2)CC1 (stereo partly drawn)	0.47 nM	6 nM

Compound	IC50 [1]	IC50 [2]
C[C@]12C[C@@H]3C[C@](C)(C1)C[C@@](NC(=O)Nc1ccc(C(=O)NC4CCC(C(=O)NC(CO)(CO)CO)CC4)cc1F)(C3)C2 (stereo partly drawn)	0.12 nM	0.35 nM
C[C@]12C[C@@H]3C[C@](C)(C1)C[C@@](NC(=O)Nc1ccc(C(=O)NC4CCC(C(=O)N(CCO)CCO)CC4)cc1F)(C3)C2 (stereo partly drawn)	0.23 nM	2.94 nM
CCC(=O)N1CCC(CC(=O)N2CCCN(Cc3ccc(NC(=O)N[C@@]45C[C@@H]6C[C@@](C)(C[C@@](C)(C6)C4)C5)c(F)c3)CC2)CC1	0.07 nM	0.33 nM
C[C@]12C[C@@H]3C[C@](C)(C1)C[C@@](NC(=O)Nc1ccc(CN4CCCC(C(N)=O)C4)cc1F)(C3)C2 (stereo partly drawn)	0.09 nM	0.14 nM
C[C@]12C[C@@H]3C[C@](C)(C1)C[C@@](NC(=O)Nc1ccc(CN4CCC(C(=O)NC(CO)CO)CC4)cc1F)(C3)C2	2.25 nM	31.6 nM
C[C@]12C[C@@H]3C[C@](C)(C1)C[C@@](NC(=O)Nc1ccc(CN4CCCC(C(=O)N(CCO)CCO)C4)cc1F)(C3)C2 (stereo partly drawn)	0.29 nM	0.28 nM
CCC(=O)N1CCCN(C(=O)C2CCCN(C(=O)c3ccc(NC(=O)N[C@@]45C[C@@H]6C[C@@](C)(C[C@@](C)(C6)C4)C5)c(F)c3)C2)CC1 (stereo partly drawn)	0.58 nM	0.56 nM
CC(=O)N1CCC(CC(=O)N2CCCN(Cc3ccc(NC(=O)N[C@@]45C[C@@H]6C[C@@](C)(C[C@@](C)(C6)C4)C5)c(F)c3)CC2)CC1	0.11 nM	0.49 nM
CC(O)CNC(=O)C1CCCN(C(=O)c2ccc(NC(=O)N[C@]34C[C@@H]5C[C@@](C)(C[C@@](C)(C5)C3)C4)c(F)c2)C1 (stereo partly drawn)	0.23 nM	0.28 nM
CCN(CC)C(=O)C1CCCN(C(=O)c2ccc(NC(=O)N[C@]34C[C@@H]5C[C@@](C)(C[C@@](C)(C5)C3)C4)c(F)c2)C1 (stereo partly drawn)	0.38 nM	0.35 nM
CCC(C)C(=O)N1CCC(CC(=O)N2CCCN(Cc3ccc(NC(=O)N[C@@]45C[C@@H]6C[C@@](C)(C[C@@](C)(C6)C4)C5)c(F)c3)CC2)CC1 (stereo partly drawn)	0.16 nM	0.77 nM
CCC(C)C(=O)N1CCCN(C(=O)C2CCCN(C(=O)c3ccc(NC(=O)N[C@@]45C[C@@H]6C[C@@](C)(C[C@@](C)(C6)C4)C5)c(F)c3)C2)CC1 (stereo partly drawn)	0.9 nM	1.4 nM
CC(=O)N1CCCN(C(=O)C2CCCN(C(=O)c3ccc(NC(=O)N[C@@]45C[C@@H]6C[C@@](C)(C[C@@](C)(C6)C4)C5)c(F)c3)C2)CC1 (stereo partly drawn)	0.26 nM	0.6 nM
C[C@]12C[C@@H]3C[C@](C)(C1)C[C@@](NC(=O)Nc1ccc(C(=O)NC4CCC(C(=O)N5CCC(CCO)CC5)CC4)cc1F)(C3)C2 (stereo partly drawn)	0.53 nM	16 nM
C[C@]12C[C@@H]3C[C@](C)(C1)C[C@@](NC(=O)Nc1ccc(CN4CCC(C(=O)NC(CO)(CO)CO)CC4)cc1F)(C3)C2	0.12 nM	6.51 nM
C=C(C)C(=O)N1CCC(CC(=O)N2CCCN(C(=O)c3ccc(NC(=O)N[C@@]45C[C@@H]6C[C@@](C)(C[C@@](C)(C6)C4)C5)cc3)CC2)CC1	0.13 nM	1 nM
CCN(CC)C(=O)C1CCCN(Cc2ccc(NC(=O)N[C@@]34C[C@@H]5C[C@@](C)(C[C@@](C)(C5)C3)C4)c(F)c2)C1 (stereo partly drawn)	0.56 nM	0.35 nM
C[C@]12C[C@@H]3C[C@](C)(C1)C[C@@](NC(=O)Nc1ccc(CN4CCCC(C(=O)N5CCN(CCO)CC5)C4)cc1F)(C3)C2 (stereo partly drawn)	0.55 nM	0.98 nM
CN(C)C(=O)C1CCCN(Cc2ccc(NC(=O)N[C@@]34C[C@@H]5C[C@@](C)(C[C@@](C)(C5)C3)C4)c(F)c2)C1 (stereo partly drawn)	0.12 nM	0.7 nM
CCC(C)C(=O)N1CCCN(C(=O)C2CCCN(Cc3ccc(NC(=O)N[C@@]45C[C@@H]6C[C@@](C)(C[C@@](C)(C6)C4)C5)c(F)c3)C2)CC1 (stereo partly drawn)	0.62 nM	0.25 nM
C=C(C)C(=O)N1CCCN(C(=O)C2CCCN(Cc3ccc(NC(=O)N[C@@]45C[C@@H]6C[C@@](C)(C[C@@](C)(C6)C4)C5)c(F)c3)C2)CC1 (stereo partly drawn)	1.3 nM	0.9 nM
CC(O)CNC(=O)C1CCC(NC(=O)c2ccc(NC(=O)N[C@@]34C[C@@H]5C[C@@](C)(C[C@@](C)(C5)C3)C4)c(F)c2)CC1 (stereo partly drawn)	0.44 nM	1.54 nM
